Laboratory results reported in patent publication US20070197654A1, “COMBINATION OF A CB1 RECEPTOR ANTAGONIST AND OF A PRODUCT WHICH ACTIVATES DOPAMINERGIC NEUROTRANSMISSION IN THE BRAIN, THE PHARMACEUTICAL COMPOSITIONS COMPRISING THEM AND THEIR USE IN THE TREATMENT OF PARKINSON'S DISEASE” (AVENTIS PHARMA S.A., priority 2001, published 2007).
Marks after values point to notes of the source that are not given here.

Experiments:
Assay type in all cases: in vivo
Reserpine-treated rats [1] = test: Reserpine-induced akinesia in the rat: locomotor activity, CB1 antagonist po combined with quinpirole; conditions: locomotion recorded 1 hour
Experimental: (§1) The synergistic effect of the combination of one or more products which activate dopaminergic neurotransmission in the brain and of one or more CB1 antagonists in the treatment of Parkinson's disease was determined in a model of akinesia induced by reserpine in the rat according to the following protocol:
(§2) Male Sprague-Dawley rats were treated with reserpine administered subcutaneously at a dose of 3 mg/kg (1 ml/kg) in order to induce akinesia in the animal. 18 hours after this treatment, the locomotor activity of these animals was measured and recorded using an automatic system (Videotrack, France). The locomotion, expressed in centimeters, is estimated by a mean overall distance covered during this period (n=11-38 rats per group). The statistical analysis is carried out by variance analysis and a post-hoc comparison (if appropriate) using a Mann-Whitney or Dunnett test. A significant effect is recorded for p<0.05.
(§3) The studies by the oral route are carried out in a hydrophobic formulation solvent Labrafil/Labrasol (40/60%, w/w). These products are administered (in a volume of 1 ml/kg) one hour before the dopaminergic agonist. The recording of the locomotor activity begins 5 min after the intraperitoneal injection of the dopaminergic agonist and lasts 1 hour. The D1 dopaminergic agonist is 0.3 mg/kg C1-APB. The D2 dopaminergic agonist is 0.1 mg/kg quinpirole.
(§4) The results for the po administration of the CB1 antagonist at three different doses (1, 3 and 10 mg/kg/po) (Table 2) are expressed as percentage of increase with respect to the activity of quinpirole and a percentage of decrease with respect to the activity of a strong dose of C1-APB (SKF 82958).

Reserpine-treated rats [2] = test: Reserpine-treated rat, dyskinesia model: locomotor activity, CB1 antagonist ip combined with strong dose of levodopa; conditions: CB1 antagonist 1 mg/kg i.p.; levodopa 120 mg/kg + benserazide 50 mg/kg i.p.; locomotion recorded 2.5 hours
Experimental: as §1, §2
(§5) The results for the ip administration of the CB1 antagonist (Table 1) are expressed as percentage of increase with respect to the activity of quinpirole and as percentage of decrease with respect to the activity of a very strong dose of levodopa.
The combination of the CB1 receptor antagonist and of a strong dose of levodopa (dyskinesia model) is produced in the following way: […]

Reserpine-treated rats [3] = test: Reserpine-treated rat: locomotor activity, CB1 antagonist po combined with strong dose of C1-APB (SKF 82958); conditions: locomotion recorded 1 hour
Experimental: as §1, §2, §3, §4

Reserpine-treated rats [4] = test: Reserpine-induced akinesia in the rat: locomotor activity, CB1 antagonist ip combined with quinpirole; conditions: CB1 antagonist 1 mg/kg i.p., locomotion recorded 1 hour
Experimental: as §1, §2, §5
The combination of a CB1 receptor antagonist and of a D2 dopaminergic agonist (quinpirole) is produced in the following way: […]

`Cc1c(C(=O)NN2CCCCC2)nn(-c2ccc(Cl)cc2Cl)c1-c1ccc(Cl)cc1.Cl` [SR141716A, N-(piperidin-1-yl)-5-(4-chlorophenyl)-1-(2,4-dichlorophenyl)-4-methyl-1H-pyrazole-3-carboxamide hydrochloride] was tested, and the “Combination with quinpirole (0.1 mg/kg ip): percentage of increase with respect to the activity of quinpirole” value (Reserpine-treated rats [1]; CB1 antagonist 1 mg/kg po one hour before quinpirole) was “+57%* NS”, the “Combination with quinpirole (0.1 mg/kg ip): percentage of increase with respect to the activity of quinpirole” value (Reserpine-treated rats [1]; CB1 antagonist 3 mg/kg po one hour before quinpirole) was “+121%**” and the “Combination with quinpirole (0.1 mg/kg ip): percentage of increase with respect to the activity of quinpirole” value (Reserpine-treated rats [1]; CB1 antagonist 10 mg/kg po one hour before quinpirole) was “+87%**”. For the same compound, the “Combination with levodopa (120 mg/kg ip): percentage of decrease with respect to the activity of a very strong dose of levodopa” value (Reserpine-treated rats [2]) was −61%*, the “Combination with C1-APB (0.3 mg/kg ip): percentage of decrease with respect to the activity of a strong dose of C1-APB” value (Reserpine-treated rats [3]; CB1 antagonist 1 mg/kg po one hour before C1-APB) was −32% NS and the “Combination with C1-APB (0.3 mg/kg ip): percentage of decrease with respect to the activity of a strong dose of C1-APB” value (Reserpine-treated rats [3]; CB1 antagonist 3 mg/kg po one hour before C1-APB) was −58%*. For the same compound, the “Combination with C1-APB (0.3 mg/kg ip): percentage of decrease with respect to the activity of a strong dose of C1-APB” value (Reserpine-treated rats [3]; CB1 antagonist 10 mg/kg po one hour before C1-APB) was −82%** and the “Combination with quinpirole (62.5 μg/kg ip): percentage of increase with respect to the activity of quinpirole” value (Reserpine-treated rats [4]) was “+116%***”.
